The subject of one data set is healthy volunteers. To be noted: cited from earlier work.
Data set [1] concerns healthy subjects. To be noted: 100 mg twice daily (b.i.d.); cited from earlier work.
Data set [2] deals with healthy subjects. Kind of data set: Safety assessment. Format: in vivo, human. Particulars: Part B; 400 mg alone.
For data set [3], the system named is healthy subjects. In words: Concentration-QTc. Format: in vivo, human. Particulars: Part B; 400 mg alone.
Data set [4] can be described thus: Plasma pharmacokinetics, Part B.
Where [5] appears, read: human, in vivo, 400 mg, Mean (SD), 400 mg single dose alone.
Where [6] appears, read: human, in vivo, 400 mg, Median (range), 400 mg single dose alone.

Regarding `CC#CC(=O)N1CCC[C@H]1c1nc(-c2ccc(C(=O)Nc3ccccn3)cc2)c2c(N)nccn12` [acalabrutinib], in the data set on healthy volunteers, the “prolongation of the QTc interval or clinically relevant ECG effects” value was “no prolongation of the QTc interval or clinically relevant ECG effects”.
Turning to `C=CC(=O)N1CCC(CNc2ncnc(N)c2-c2ccc(Oc3ccccc3)cc2)CC1` [evobrutinib], the “prolongation of the QTc interval or clinically relevant ECG effects” value in the data set with healthy volunteers is “no prolongation of the QTc interval or clinically relevant ECG effects”.
As for `C=CC(=O)N1CCC([C@@H]2CCNc3c(C(N)=O)c(-c4ccc(Oc5ccccc5)cc4)nn32)CC1` [zanubrutinib], the “prolongation of the QTc interval or clinically relevant ECG effects” value with healthy volunteers was “no prolongation of the QTc interval or clinically relevant ECG effects”.
For the molecule `CC(C)c1nc(CN(C)C(=O)N[C@H](C(=O)N[C@@H](Cc2ccccc2)C[C@H](O)[C@H](Cc2ccccc2)NC(=O)OCc2cncs2)C(C)C)cs1` [ritonavir], the “effect on QT” value in the data set on healthy subjects [1] is recorded as “did not alter QT”.
As for `COc1c(N2C[C@@H]3CCCN[C@@H]3C2)c(F)cc2c(=O)c(C(=O)O)cn(C3CC3)c12` [Moxifloxacin, moxifloxacin, reference compound], in the data set with healthy subjects [2], the “Treatment-related TEAE: Abdominal pain, n (%)” value is listed as 1 (2.8) n (%); the “Treatment-related TEAE: Diarrhea, n (%)” value is on record as 1 (2.8) n (%); the “Treatment-related TEAE: Dizziness, n (%)” value was 1 (2.8) n (%); the “Treatment-related TEAE: Dysgeusia, n (%)” value is listed as 0 n (%). Besides, in the data set with healthy subjects [2], the “Treatment-related TEAE: Frequent bowel movements, n (%)” value was 0 n (%); the “Treatment-related TEAE: Gastrointestinal disorders, n (%)” value is 1 (2.8) n (%); the “Treatment-related TEAE: Headache, n (%)” value is reported as 0 n (%); the “Treatment-related TEAE: Herpex simplex, n (%)” value is on record as 0 n (%). Moreover, in the data set on healthy subjects [2], the “Treatment-related TEAE: Infections and infestations, n (%)” value is on record as 1 (2.8) n (%); the “Treatment-related TEAE: Lethargy, n (%)” value is on record as 1 (2.8) n (%); the “Treatment-related TEAE: Nausea, n (%)” value is 1 (2.8) n (%); the “Treatment-related TEAE: Nervous system disorders, n (%)” value is 2 (5.6) n (%). Besides, in the data set on healthy subjects [2], the “Treatment-related TEAE: Somnolence, n (%)” value was 0 n (%); the “Treatment-related TEAE: Subjects with ≥1 TEAE, n (%)” value is 3 (8.3) n (%); the “Treatment-related TEAE: Vomiting, n (%)” value is 1 (2.8) n (%); the “incidence of treatment-related TEAEs” value is 8.3%. For the same molecule, the participants with diarrhea in the data set with healthy subjects [2] was found to be 2.8%. Moreover, in the data set on healthy subjects [3], the “predicted ΔΔQTcF at the observed geometric mean Cmax” value is given as 14.7 ms. For the same molecule, the “Tmax, Median (range)” value in data set [4] (400 mg single dose alone) was 2.1 (0.6–10) h. In addition, the AUC(0-t) in data set [4] (human, in vivo, 400 mg, AUC0–last, Mean (SD), 400 mg single dose alone) came to 22700 ng·h/mL. The same molecule yielded an AUC(0-inf) in data set [4] (human, in vivo, 400 mg, AUC0–∞, Mean (SD), 400 mg single dose alone) of 27400 ng·h/mL. In addition, in data set [4] (setting [5]), the Cmax was 2360 ng/mL and the Tmax came to 2.2 h. Further, in data set [4] (setting [6]), the maximum concentration (Cmax) stood at 2310 ng/mL and the Tmax is around 2 h. Besides, the Cmax in data set [4] (human, in vivo, 400 mg, range, single moxifloxacin 400 mg dose) fell in the range of 1230 to 4080 ng/mL. For the same molecule, the “geometric mean peak concentration” value in data set [4] (moxifloxacin 400 mg) worked out at 2260 ng/mL.

By AUC(0-t) is commonly meant the area under the concentration-time curve up to a stated or last time point. Higher therefore signals high exposure. Usually AUC(0-inf) stands for total exposure, with the tail of the curve extrapolated. The low end stands for less exposure, the high end for more exposure. One may read the Cmax as the peak of the concentration-time curve. By Tmax is commonly meant the time from dosing to the highest level.

These data come from PMC9199881 (Clinical and Translational Science, 2022).
